Assay results from patent publication US10233177B2, “TRPV1 vanilloid receptor antagonists with a bicyclic portion” (Serentrix LLC, priority 2010, dated 2019).
pIC50: −log10 of the molar value. Read-outs that look alike come from different tables or passages of the source.

How the values were obtained:
TRPV1 = TRPV1 (Rattus norvegicus (Rat), UniProt O35433); experiment: Ca2+ fluorescence measurements in cultured rat dorsal root ganglia neurons (capsaicin-induced calcium uptake); type: cell-based; conditions: rat DRG neurons; for inhibition at 0.3 µM: DRG neuron
Chain of TRPV1 (O35433 whole entry): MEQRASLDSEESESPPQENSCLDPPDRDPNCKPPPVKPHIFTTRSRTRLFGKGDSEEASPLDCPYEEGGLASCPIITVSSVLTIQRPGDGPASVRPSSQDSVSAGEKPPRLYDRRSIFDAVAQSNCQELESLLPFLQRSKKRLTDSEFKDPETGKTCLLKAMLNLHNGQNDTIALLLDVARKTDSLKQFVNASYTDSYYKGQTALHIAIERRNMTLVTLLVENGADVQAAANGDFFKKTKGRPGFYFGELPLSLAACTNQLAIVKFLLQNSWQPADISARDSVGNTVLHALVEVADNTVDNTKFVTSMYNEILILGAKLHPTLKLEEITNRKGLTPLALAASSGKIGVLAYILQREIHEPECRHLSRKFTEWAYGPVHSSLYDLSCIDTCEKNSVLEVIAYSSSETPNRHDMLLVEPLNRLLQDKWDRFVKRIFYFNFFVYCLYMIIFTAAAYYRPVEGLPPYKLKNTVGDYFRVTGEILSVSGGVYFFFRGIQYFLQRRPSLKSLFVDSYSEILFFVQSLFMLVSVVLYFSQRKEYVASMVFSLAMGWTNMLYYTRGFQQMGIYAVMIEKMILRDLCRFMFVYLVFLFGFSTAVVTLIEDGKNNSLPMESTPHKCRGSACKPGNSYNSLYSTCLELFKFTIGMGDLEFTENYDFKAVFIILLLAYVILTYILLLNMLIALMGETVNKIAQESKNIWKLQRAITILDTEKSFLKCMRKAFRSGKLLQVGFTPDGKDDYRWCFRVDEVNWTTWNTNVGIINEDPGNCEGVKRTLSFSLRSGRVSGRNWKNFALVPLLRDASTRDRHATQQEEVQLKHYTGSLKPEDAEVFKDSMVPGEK

[1] = tested on: CFA-induced thermal hyperalgesia; experiment: CFA-induced thermal hyperalgesia in rats (Hargreaves' test); type: in vivo; conditions: rat, 30 μmol/kg oral; read-out: reversal of CFA-induced thermal hyperalgesia (maximal reversal activity / % of reversion)
Description: CFA-Induced Thermal Hyperalgesia in Rats
This method was used for the determination of acute nociceptive thermal threshold and combines a chemical stimulus and heat for measuring pain sensitivity. Male SD rats (Charles River, Italy) weighing 100 to 250 gr. were used. Anti-hyperalgesic effects were investigated by using the Hargreaves' test. Complete Freund's Adjuvant (CFA; Sigma, USA) was used to induce thermal hyperalgesia. CFA contains killed Mycobacterium tuberculosis and is designed to provide continuous release of antigens necessary for stimulating a strong, persistent immune response. This effect causes the reduction of the hind paw withdrawal response latency induced by heat during the Hargreaves' test. Thermal stimulation was performed 30, 60, 120 and 180 (240 min only if needed) minutes after the oral administration of the antagonists. During the CFA-induced thermal hyperalgesia experiments two different solubilization protocols were used: when items presented an amino group, a pH=2 aqueous solution of HCl and 2.5% Tween80 was used; otherwise molecules were suspended in 0.5% Methocel and 2.5% Tween80. Compounds were orally administrated (30 μmol/kg/10 ml) to rats 24 hours after the CFA treatment. CFA was injected into the plantar surface of a rat's hind paw at a fixed dose of 50 μl by the use of a micro syringe.

[2] = tested on: CFA-induced tactile allodynia; experiment: CFA-induced tactile allodynia in rats (von Frey filaments); type: in vivo; conditions: rat, 30 μmol/kg oral
Method: CFA-Induced Tactile Allodynia in Rats
Male SD rats (Charles River, Italy) weighing 100 to 250 g were put into a clean plastic cage on an elevated glass plate for 30 min before the test. This lets the animals accommodate to their new environment before testing. Complete Freund's adjuvant (CFA, 50 μl) was injected into the plantar surface of the right hind paw. Tactile stimulation was performed with von Frey filaments (from 0.07 to 26 g). All antagonists were orally administered 22 hours after to the CFA administration. Von Frey filaments were applied 30, 60, 120, 180, 240, 300 and 360 min after compound administrations. Median 50% (EG50) threshold of von Frey filaments was calculated by using the up-down method as previously described. All tested compounds were suspended in 0.5% Methocel and 2.5% Tween80 and orally administrated (30 μmol/kg/10 ml) to rats by gavage 24 hours after the CFA treatment. CFA was injected into the plantar surface of a rat's hind paw at a fixed dose of 50 μl by the use of a micro syringe.

[3] = tested on: CCI-induced mechanical hyperalgesia; experiment: CCI-induced mechanical hyperalgesia (Randall-Selitto paw pressure); type: in vivo; conditions: rat CCI, 30 μmol/kg oral
Method: CCI-Induced Mechanical Hyperalgesia
Male SD rats (Charles River, Italy) weighing 250 g were anaesthetized with sodium pentobarbital (60 mg/kg, intraperitoneal (i.p.), 0.1 ml/10 g) and, under a dissecting microscope, the right common sciatic nerve was exposed at the level of the mid thigh and, proximal to the trifurcation of the nerve; four ligatures (4/0 chromic silk, Ethicon) were loosely tied around it, at about 0.5 mm spacing, until they elicited a brief twitch in the respective hind, taking care to preserve epineural circulation. Sham-operated animals (sciatic exposure without ligation) were used as controls. 14 days after the surgery, mechanical hyperalgesia was assessed using an analgesimeter (Ugo Basile, Italy, Randall-Selitto analgesic apparatus). This device generated a mechanical force on the affected paw and the nociceptive threshold was defined as the force (in g) at which the rat withdraws the paw (with a cut-off of 450 g). Two baseline measurement values were obtained 75 and 45 min before the actual test. After the second baseline measurement, animals were randomly allocated to the different treatment groups. Paw pressure test was performed 0, 75, 120, 165, 210 and 300 min after the oral administration of the compounds. All tested compounds were orally administrated (30 μmol/kg/10 ml) to rats by gavage.

[4] = Rectal temperature measurements in rats; type: in vivo; conditions: rat, 10 μmol/Kg intraperitoneal
Method: Rectal Temperature Measurements in Rats
Body temperature was measured by a digital thermometer inserted at a depth of approximately 3 cm into the rectum of each animal (male SD rats, Charles River, Italy, 100 to 250 g). A pre-dose value of body temperature was measured prior to the administration of the test substance or vehicles. Animals were distributed among groups by the manual method to achieve the almost same mean values of body temperature of the groups based on the pre-dose value. All compounds were dissolved in 6% DMSO/6% Tween80 and then intraperitoneally (10 μmol/Kg/5 ml) administrated to rats.

[5] = 300 nM, read-out: abolition of capsaicin response at 300 nM
[6] = Table 1, formula IA-C, 300 nM against calcium uptake induced by 30 nM capsaicin, read-out: % inhibition at 300 nM
[7] = capsaicin-induced calcium uptake, read-out: inhibition of the calcium uptake
[8] = Table 1, against capsaicin-evoked [Ca2+]i mobilization, read-out: IC50
[9] = read-out: IC50 against capsaicin-evoked [Ca2+]i mobilization

Row | inhibition at 0.3 µM (TRPV1; [5]) [%] | inhibition at 0.3 µM (TRPV1; [6]) [%] | inhibition at 0.3 µM (TRPV1; [7]) [%] | pIC50 (TRPV1; [8]) | pIC50 (TRPV1; [9]) | effect on rectal body temperature [4] | Structure (SMILES) | inhibition in vivo at 30 µmol/kg [1] [%] | duration of effect on CFA-induced tactile allodynia, post-treatment [2] | reversal of CFA-induced tactile allodynia [2] [%] | anti-hyperalgesic activity (in words) [3] | reversal of hyperalgesia within the first 2 hours [3]
1 | ~100 | 100 | > 80 | 9.00 | 9.00 |  | O=C(NCc1ccc(C(F)(F)F)cc1N1CCCC1)Nc1cccc2[nH]c(=O)[nH]c12 [Example 5, 1-(4-(trifluoromethyl)-2-(pyrrolidin-1-yl)benzyl)-3-(2,3-dihydro-2-oxo-1H-benzo[d]imidazol-4-yl)urea] | 53 | up to 240 min | 60 | relevant and long lasting anti-hyperalgesic activity | at least 80%
2 | ~100 | 100 | > 80 | 8.72 | 8.72 | −1.5 °C | O=C(NCc1ccc(C(F)(F)F)cc1N1CCCCC1)Nc1cccc2oc(=O)[nH]c12 [Example 31, 1-(4-(trifluoromethyl)-2-(piperidin-1-yl)benzyl)-3-(2,3-dihydro-2-oxobenzo[d]oxazol-4-yl)urea] | 47 |  |  | relevant and long lasting anti-hyperalgesic activity | at least 80%
3 | ~100 | 94 | > 80 | 8.52 | 8.52 | +0.8 °C | CN(C)c1cc(C(F)(F)F)ccc1CNC(=O)Nc1cccc2c1OCC(=O)N2 [Example 46, 1-(2-(dimethylamino)-4-(trifluoromethyl)benzyl)-3-(3,4-dihydro-3-oxo-2H-benzo[b][1,4]oxazin-8-yl)urea] | 50 |  |  | relevant and long lasting anti-hyperalgesic activity | at least 80%
4 |  | 68 |  |  |  |  | O=C1COc2c(cccc2NC(=O)NCc2ccc(Cl)cc2)N1 [Example 49, 1-(4-chlorobenzyl)-3-(3,4-dihydro-3-oxo-2H-benzo[b][1,4]oxazin-8-yl)urea] | 52 |  | 72 | relevant and long lasting anti-hyperalgesic activity | at least 80%
5 | ~100 | 100 | > 80 | 10.00 | 8.74 |  | O=C1COc2c(cccc2NC(=O)NCc2ccc(Cl)cc2N2CCCC2)N1 [Example 51, 1-(4-chloro-2-(pyrrolidin-1-yl)benzyl)-3-(3,4-dihydro-3-oxo-2H-benzo[b][1,4]oxazin-8-yl)urea] | 30 | shorter duration | 61 |  | 
